{
  "source": "patent US20070253907A1",
  "about": "“Non Human Transgenic Animal as Model of Neurodegenerative Diseases and for the Early Diagnosis Thereof” (priority 2004, published 2007)",
  "test_system": "VK-AD11 mice",
  "experiment": "Reversal of the neurodegenerative phenotype of VK-AD11 mice by intranasal NGF administration",
  "assay_type": "in vivo",
  "conditions": "VK-AD11 mice from 4 months of age, NGF 10 μM solution intranasally every 2 days",
  "protocol": "All experiments were conducted in mice starting from 4 months of age, when neurodegeneration is not so readily apparent. NGF was administered by intranasal injection (Frey et al., 1997) conducted every 2 days. NGF was administered as a 10 μM solution in phosphate buffer pH 7.4, injecting 3 μl per nostril every 2 min and alternating nostrils. The VK-AD11 control mice and non transgenic mice were treated only with phosphate buffer. For each administration, the infusion lasted 30 min. This non invasive method for administering NGF allows to avoid the use of the intraventricular injections to apply NGF directly to the cerebral tissue.\nTo verify the administration of NGF, the mice were sacrificed 2 months from the begining of the treatment. The brain was removed and fixed in paraformaldehyde to conduct histological analyses.",
  "note": "“Also recorded” adds a separate entry of the source.",
  "data": [
    {"substance": "NGF: Nerve Growth Factor, administered intranasally as a 10 μM solution in phosphate buffer pH 7.4", "values": [
      {"measurement": "cholinergic deficit", "setting": "histology 2 months from beginning of treatment (FIG. 18A)", "result": "improves; also recorded: a similar phenotype to that of the non transgenic control mice was re-established"},
      {"measurement": "deposition of β-amyloid (number of cells containing β-amyloid)", "setting": "histology 2 months from beginning of treatment (FIG. 18B)", "result": "decreases; also recorded: a similar phenotype to that of the non transgenic control mice was re-established"},
      {"measurement": "hyperphosphorylated tau (number of cells that express phosphorylated tau)", "setting": "histology 2 months from beginning of treatment (FIG. 18C)", "result": "decreases; also recorded: a similar phenotype to that of the non transgenic control mice was re-established"}
    ]}
  ]
}
